{"source": "ChEMBL document CHEMBL5465560", "about": "“Selectivity Literature for EUbOPEN Chemogenomic Library” (2024)", "key": {"[1]": {"target": "High affinity nerve growth factor receptor (Homo sapiens, UniProt P04629)", "sequence (P04629 33-796 limits assumed)": "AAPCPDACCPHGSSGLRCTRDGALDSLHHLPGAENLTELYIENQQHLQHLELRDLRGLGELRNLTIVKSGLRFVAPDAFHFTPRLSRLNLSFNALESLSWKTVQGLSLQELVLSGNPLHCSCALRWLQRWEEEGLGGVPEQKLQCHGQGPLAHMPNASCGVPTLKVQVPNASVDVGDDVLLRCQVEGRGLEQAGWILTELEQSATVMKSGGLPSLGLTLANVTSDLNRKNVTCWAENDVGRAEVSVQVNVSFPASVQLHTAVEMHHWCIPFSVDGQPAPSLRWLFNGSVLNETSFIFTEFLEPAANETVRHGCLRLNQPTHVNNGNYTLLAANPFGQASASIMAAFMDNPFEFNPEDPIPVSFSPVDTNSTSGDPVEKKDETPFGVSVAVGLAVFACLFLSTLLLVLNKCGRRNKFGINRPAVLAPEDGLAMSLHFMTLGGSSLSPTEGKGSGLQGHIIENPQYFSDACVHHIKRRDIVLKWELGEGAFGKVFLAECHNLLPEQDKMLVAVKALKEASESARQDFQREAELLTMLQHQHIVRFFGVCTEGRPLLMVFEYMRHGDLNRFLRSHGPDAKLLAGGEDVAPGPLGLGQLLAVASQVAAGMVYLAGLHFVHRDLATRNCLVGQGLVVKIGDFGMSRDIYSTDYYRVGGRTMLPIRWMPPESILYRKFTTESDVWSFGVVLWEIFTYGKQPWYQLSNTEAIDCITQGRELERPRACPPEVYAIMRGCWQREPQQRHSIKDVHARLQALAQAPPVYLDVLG", "assay": "Selectivity interaction (Kinase panel (Z-LYTE Assay)) EUB0001632a NTRK1", "conditions": "at 10 µM"}, "[2]": {"target": "T1, Ephrin type-A receptor 1 (Homo sapiens) (UniProt P21709)", "T1 sequence (whole entry)": "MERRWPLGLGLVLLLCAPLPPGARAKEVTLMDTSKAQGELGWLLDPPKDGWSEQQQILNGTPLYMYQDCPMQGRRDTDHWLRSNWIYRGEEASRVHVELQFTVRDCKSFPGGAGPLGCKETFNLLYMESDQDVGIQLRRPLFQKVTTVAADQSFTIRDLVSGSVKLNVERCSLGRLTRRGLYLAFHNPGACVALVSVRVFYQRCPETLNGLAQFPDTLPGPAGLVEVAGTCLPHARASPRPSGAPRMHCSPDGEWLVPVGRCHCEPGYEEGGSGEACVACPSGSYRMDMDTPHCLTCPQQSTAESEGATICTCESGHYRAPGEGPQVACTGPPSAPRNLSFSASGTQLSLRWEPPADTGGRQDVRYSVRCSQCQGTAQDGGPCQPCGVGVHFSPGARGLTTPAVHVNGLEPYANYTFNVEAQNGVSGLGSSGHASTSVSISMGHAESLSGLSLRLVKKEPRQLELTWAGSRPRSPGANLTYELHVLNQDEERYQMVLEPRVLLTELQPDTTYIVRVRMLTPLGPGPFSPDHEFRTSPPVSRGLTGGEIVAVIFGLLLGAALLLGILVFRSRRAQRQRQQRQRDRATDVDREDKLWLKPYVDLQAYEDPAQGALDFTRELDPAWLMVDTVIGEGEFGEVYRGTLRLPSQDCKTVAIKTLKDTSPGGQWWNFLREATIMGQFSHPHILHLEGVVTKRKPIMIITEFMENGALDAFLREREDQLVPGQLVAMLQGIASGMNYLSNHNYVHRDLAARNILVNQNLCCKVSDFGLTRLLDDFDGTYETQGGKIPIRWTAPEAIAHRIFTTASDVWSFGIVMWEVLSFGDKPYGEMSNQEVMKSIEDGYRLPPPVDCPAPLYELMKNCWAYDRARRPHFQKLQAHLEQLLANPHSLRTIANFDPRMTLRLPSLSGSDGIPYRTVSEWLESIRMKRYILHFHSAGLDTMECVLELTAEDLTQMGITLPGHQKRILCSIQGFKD", "assay": "Selectivity interaction (Kinase panel (Z-LYTE Assay)) EUB0001632a EPHA1", "conditions": "at 10 µM"}, "[3]": {"target": "T2, Mitogen-activated protein kinase kinase kinase kinase 2 (Homo sapiens) (UniProt Q12851)", "T2 sequence (whole entry)": "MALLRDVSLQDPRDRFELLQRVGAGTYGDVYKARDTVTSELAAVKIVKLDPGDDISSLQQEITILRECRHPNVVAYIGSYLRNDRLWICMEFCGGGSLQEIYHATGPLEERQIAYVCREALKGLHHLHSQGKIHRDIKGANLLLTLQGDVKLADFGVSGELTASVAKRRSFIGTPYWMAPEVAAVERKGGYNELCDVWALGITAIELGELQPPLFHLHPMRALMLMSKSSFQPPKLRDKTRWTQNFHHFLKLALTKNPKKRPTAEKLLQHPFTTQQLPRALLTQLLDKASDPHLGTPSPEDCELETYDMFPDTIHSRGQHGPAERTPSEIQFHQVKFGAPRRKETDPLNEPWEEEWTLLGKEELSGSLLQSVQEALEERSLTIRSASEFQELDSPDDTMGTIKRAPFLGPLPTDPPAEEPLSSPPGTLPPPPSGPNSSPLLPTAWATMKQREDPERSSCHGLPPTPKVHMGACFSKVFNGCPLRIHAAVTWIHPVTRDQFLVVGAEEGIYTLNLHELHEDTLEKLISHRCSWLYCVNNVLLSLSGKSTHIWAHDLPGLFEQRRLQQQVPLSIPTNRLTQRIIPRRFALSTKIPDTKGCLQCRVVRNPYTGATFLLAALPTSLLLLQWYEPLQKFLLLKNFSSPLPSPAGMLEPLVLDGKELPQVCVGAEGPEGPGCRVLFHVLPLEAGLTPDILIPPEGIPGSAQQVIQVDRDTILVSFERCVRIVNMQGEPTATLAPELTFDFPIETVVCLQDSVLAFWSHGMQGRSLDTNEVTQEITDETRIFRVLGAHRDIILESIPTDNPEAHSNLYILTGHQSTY", "assay": "Selectivity interaction (Kinase panel (Z-LYTE Assay)) EUB0001632a MAP4K2", "conditions": "at 10 µM"}, "[4]": {"target": "Myosin light chain kinase, smooth muscle (Homo sapiens, UniProt Q15746)", "sequence (Q15746 whole entry)": "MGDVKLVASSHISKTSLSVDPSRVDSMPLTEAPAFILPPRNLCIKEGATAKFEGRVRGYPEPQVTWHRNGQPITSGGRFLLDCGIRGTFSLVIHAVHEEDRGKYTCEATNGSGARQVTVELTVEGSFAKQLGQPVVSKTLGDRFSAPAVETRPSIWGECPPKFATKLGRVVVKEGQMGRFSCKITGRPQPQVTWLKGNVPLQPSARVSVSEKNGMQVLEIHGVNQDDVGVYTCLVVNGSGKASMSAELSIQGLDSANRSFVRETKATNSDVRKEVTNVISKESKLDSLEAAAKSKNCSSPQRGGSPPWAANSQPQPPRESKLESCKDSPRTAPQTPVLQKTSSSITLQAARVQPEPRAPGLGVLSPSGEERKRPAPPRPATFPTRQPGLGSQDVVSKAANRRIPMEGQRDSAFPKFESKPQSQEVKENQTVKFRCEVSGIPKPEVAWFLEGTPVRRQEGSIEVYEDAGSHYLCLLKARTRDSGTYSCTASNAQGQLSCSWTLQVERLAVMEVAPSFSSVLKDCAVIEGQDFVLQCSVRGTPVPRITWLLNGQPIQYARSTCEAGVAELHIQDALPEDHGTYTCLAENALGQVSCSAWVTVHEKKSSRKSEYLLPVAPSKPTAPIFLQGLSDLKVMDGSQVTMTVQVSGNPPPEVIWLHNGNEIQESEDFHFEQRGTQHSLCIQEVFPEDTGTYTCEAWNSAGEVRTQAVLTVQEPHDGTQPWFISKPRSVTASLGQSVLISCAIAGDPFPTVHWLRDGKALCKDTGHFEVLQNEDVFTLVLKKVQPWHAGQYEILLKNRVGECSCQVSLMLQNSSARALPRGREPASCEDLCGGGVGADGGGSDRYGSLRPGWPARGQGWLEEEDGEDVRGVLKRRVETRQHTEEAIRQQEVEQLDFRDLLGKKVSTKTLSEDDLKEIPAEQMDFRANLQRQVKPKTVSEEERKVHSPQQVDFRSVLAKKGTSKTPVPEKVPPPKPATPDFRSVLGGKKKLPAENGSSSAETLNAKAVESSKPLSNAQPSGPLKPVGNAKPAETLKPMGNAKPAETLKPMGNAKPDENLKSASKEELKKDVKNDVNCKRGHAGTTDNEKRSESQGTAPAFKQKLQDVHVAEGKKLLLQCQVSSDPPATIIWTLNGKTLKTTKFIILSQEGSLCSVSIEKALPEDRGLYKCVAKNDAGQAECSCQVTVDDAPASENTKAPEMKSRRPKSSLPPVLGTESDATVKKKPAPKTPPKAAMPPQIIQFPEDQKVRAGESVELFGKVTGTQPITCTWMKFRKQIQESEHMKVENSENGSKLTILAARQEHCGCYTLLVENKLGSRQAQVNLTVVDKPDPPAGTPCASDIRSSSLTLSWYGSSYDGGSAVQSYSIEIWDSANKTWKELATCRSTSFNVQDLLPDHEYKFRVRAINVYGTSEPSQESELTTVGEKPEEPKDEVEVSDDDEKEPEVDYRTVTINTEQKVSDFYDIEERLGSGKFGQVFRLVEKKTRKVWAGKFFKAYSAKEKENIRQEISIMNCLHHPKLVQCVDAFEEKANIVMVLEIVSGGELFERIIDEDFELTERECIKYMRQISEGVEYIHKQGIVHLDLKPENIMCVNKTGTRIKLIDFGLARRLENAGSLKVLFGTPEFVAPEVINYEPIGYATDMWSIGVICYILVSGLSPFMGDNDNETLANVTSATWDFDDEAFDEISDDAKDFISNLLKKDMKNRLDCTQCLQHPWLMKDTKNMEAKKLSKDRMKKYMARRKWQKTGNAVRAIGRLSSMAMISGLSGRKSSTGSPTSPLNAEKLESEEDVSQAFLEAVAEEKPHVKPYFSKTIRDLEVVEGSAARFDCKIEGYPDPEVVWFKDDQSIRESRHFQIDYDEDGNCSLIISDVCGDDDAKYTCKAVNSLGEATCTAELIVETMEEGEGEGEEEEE", "assay": "Selectivity interaction (KinomeScan (DiscoverX)) EUB0000666a MYLK", "conditions": "at 10 µM"}, "[5]": {"target": "Fibroblast growth factor receptor 1 (Homo sapiens, UniProt P11362)", "sequence (P11362 22-822 limits assumed)": "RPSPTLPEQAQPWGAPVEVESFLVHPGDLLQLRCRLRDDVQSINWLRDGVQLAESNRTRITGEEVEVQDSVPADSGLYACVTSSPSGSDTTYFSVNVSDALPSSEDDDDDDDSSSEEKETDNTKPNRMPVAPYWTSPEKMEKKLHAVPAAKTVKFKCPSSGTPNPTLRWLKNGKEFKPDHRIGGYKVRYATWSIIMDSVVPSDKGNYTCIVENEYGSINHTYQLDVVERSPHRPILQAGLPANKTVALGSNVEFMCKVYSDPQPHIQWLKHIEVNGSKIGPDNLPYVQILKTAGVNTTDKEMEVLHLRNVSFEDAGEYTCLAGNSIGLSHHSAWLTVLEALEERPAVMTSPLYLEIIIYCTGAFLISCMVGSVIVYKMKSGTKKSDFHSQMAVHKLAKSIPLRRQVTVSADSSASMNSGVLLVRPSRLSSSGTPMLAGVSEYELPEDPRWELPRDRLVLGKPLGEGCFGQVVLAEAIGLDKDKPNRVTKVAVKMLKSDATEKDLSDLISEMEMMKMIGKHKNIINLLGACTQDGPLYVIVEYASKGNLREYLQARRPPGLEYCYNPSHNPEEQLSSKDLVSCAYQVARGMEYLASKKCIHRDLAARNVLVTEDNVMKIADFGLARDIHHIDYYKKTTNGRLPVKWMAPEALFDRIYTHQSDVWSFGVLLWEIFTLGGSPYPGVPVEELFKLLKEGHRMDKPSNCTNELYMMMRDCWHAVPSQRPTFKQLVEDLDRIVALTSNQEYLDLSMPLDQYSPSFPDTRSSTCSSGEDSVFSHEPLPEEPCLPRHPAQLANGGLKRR", "assay": "Selectivity interaction (Kinase panel (DSF assay)) EUB0001559a FGFR1"}, "[6]": {"target": "Cyclin-dependent kinase 4 (Homo sapiens, UniProt P11802)", "sequence (P11802 whole entry)": "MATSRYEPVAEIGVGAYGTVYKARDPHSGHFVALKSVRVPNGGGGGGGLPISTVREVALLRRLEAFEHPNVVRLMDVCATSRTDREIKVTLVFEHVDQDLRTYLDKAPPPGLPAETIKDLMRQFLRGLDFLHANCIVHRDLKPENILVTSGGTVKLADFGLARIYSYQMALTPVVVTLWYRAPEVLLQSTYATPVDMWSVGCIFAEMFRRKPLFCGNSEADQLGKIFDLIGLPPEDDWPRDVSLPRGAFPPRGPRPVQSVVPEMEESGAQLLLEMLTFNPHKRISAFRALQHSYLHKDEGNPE", "assay": "Selectivity interaction (KinomeScan (DiscoverX)) EUB0001049a CDK4", "conditions": "at 1 µM"}, "[7]": {"target": "Serine/threonine-protein kinase pim-3 (Homo sapiens) (UniProt Q86V86)", "assay": "Selectivity interaction (KinomeScan (DiscoverX)) EUB0001049a PIM3", "conditions": "at 1 µM"}, "[8]": {"target": "Calcium/calmodulin-dependent protein kinase kinase 2 (Homo sapiens) (UniProt Q96RR4)", "sequence (Q96RR4 2-588 limits assumed)": "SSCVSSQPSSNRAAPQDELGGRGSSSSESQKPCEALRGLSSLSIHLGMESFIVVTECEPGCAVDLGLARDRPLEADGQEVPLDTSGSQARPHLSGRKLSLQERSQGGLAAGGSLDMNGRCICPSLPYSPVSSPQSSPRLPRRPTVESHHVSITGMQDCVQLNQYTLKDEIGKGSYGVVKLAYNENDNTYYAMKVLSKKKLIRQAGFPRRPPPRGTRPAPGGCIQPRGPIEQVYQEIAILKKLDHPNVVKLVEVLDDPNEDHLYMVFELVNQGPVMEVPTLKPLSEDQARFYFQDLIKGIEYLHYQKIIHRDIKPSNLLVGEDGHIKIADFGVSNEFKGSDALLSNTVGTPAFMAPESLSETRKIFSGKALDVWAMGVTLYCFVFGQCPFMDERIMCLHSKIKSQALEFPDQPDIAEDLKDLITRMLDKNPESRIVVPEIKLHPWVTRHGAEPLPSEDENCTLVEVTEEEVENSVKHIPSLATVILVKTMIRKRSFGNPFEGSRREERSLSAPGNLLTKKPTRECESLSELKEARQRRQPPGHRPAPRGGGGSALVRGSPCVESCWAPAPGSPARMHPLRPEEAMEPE", "assay": "Selectivity interaction (KinomeScan (DiscoverX)) EUB0000655a CAMKK2", "conditions": "at 10 µM"}, "[9]": {"target": "RAC-beta serine/threonine-protein kinase (Homo sapiens) (UniProt P31751)", "sequence (P31751 whole entry)": "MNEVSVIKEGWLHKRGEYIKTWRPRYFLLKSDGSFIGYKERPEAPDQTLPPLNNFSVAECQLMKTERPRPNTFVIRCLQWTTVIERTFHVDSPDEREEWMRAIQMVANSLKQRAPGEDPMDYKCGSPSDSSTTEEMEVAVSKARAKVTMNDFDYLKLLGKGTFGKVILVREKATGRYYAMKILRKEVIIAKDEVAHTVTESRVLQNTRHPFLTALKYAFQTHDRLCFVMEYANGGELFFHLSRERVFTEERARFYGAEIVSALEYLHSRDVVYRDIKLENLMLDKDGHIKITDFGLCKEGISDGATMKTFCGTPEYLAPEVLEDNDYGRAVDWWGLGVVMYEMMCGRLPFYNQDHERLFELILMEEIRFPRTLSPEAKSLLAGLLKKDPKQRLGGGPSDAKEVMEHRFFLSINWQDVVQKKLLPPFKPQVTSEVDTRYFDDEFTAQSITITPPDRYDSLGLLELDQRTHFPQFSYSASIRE", "assay": "Selectivity interaction (KinomeScan (DiscoverX)) EUB0000092b AKT2", "conditions": "at 10 µM"}, "[10]": {"target": "T3, Tyrosine-protein kinase TXK (Homo sapiens) (UniProt P42681)", "T3 sequence (whole entry)": "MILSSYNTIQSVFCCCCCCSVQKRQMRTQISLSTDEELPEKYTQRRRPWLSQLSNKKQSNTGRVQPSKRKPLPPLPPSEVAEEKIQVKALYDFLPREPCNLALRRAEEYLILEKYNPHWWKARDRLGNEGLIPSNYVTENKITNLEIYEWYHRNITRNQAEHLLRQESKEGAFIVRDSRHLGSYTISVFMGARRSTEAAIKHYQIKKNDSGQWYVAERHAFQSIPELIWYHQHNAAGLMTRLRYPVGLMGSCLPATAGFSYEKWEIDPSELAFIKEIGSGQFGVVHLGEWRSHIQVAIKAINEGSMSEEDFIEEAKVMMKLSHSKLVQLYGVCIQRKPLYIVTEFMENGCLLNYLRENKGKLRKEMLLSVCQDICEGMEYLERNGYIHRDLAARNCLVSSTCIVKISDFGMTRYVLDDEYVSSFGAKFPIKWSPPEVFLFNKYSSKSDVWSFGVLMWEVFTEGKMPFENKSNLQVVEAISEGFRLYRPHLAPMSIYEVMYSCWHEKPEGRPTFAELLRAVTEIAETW", "assay": "Selectivity interaction (KinomeScan (DiscoverX)) EUB0000092b TXK", "conditions": "at 10 µM"}, "[11]": {"target": "Ribosomal protein S6 kinase alpha-2 (Homo sapiens) (UniProt Q15349)", "conditions": "at 10 µM"}, "[12]": {"target": "SRSF protein kinase 2 (Homo sapiens) (UniProt P78362)", "assay": "Selectivity interaction (KinomeScan (DiscoverX)) EUB0000618a SRPK2", "conditions": "at 10 µM"}}}
{"compound": "Cn1cc(-n2cnc3c(NCc4nc5cc(Cl)c(Cl)cc5[nH]4)nc(N4CCOCC4)nc32)cn1", "values": [{"measurement": "% of control", "setting": "[1]", "result": -5.4, "unit": "%"}, {"measurement": "% of control", "setting": "[2]", "result": 2.3, "unit": "%"}, {"measurement": "% of control", "setting": "[3]", "result": -4.87, "unit": "%"}]}
{"compound": "O=C(NOC[C@H](O)CO)c1ccc(F)c(F)c1Nc1ccc(I)cc1F", "values": [{"measurement": "% of control", "setting": "[4]", "result": 96, "unit": "%"}]}
{"compound": "CN(C(=O)c1cnn2cccnc12)c1cc2c(cc1N1CCOCC1)C(=O)N(C[C@@H](F)C(C)(C)O)C2", "values": [{"measurement": "dTM", "setting": "[5]", "result": 1, "unit": "K"}]}
{"compound": "COc1cc(Nc2nc(C)cc(-c3cnn4nc(OC)ccc34)n2)cc(C(F)(F)F)c1", "values": [{"measurement": "% of control", "setting": "[6]", "result": 70, "unit": "%"}, {"measurement": "% of control", "setting": "[7]", "result": 83, "unit": "%"}]}
{"compound": "CN(C)CCOc1ccc(-c2nc(-c3ccncc3)c(-c3ccc4c(c3)CC/C4=N\\O)[nH]2)cc1", "values": [{"measurement": "% of control", "setting": "[8]", "result": 88, "unit": "%"}]}
{"compound": "CCC(=O)N1CCN(c2ccc(-n3c(=O)ccc4cnc5ccc(-c6cnc7ccccc7c6)cc5c43)cc2C(F)(F)F)CC1", "values": [{"measurement": "% of control", "setting": "[9]", "result": 100, "unit": "%"}, {"measurement": "% of control", "setting": "[10]", "result": 54, "unit": "%"}]}
{"compound": "Cc1cc([C@@H](C)Nc2ccccc2C(=O)O)c2nc(N3CCOCC3)cc(=O)n2c1", "note": "[AZD-6482]", "values": [{"measurement": "% of control", "setting": "[11]", "result": 98, "unit": "%"}]}
{"compound": "O[C@H]1CC[C@H](Nc2ncc3nc(Nc4c(F)cc(F)cc4F)n([C@H]4CCOC4)c3n2)CC1", "values": [{"measurement": "% of control", "setting": "[12]", "result": 100, "unit": "%"}]}
